Laboratory results from patent publication US8003570B2, “Composition and method for killing nematodes and weeds in soils” (priority 2006, dated 2011).

How the values were obtained:
Assay type in all cases: in vivo
tomatoes [1] = assay: Example II field trial, methyl bromide dose reduction with or without composition A: tomato growth and production
Procedure: (§1) Field trials were conducted in Florida where tomatoes are grown under a plastic mulch and an irrigation system, called “T” tapes, which is used to irrigate the crop under the plastic mulch. Design of the experiment were three rows of a standard methyl bromide applications as the smallest replication. Four such sets of three rows were used as replicated applications. There was a zero treatment. Methyl bromide gas used at a 400 pounds per acre basis as the control and the compositions A, B, C. and D were used at a 5 liters per acre basis. Composition A was injected through the “T” tape one day after methyl bromide was injected.
(§2) The plants growing in the middle rows only of these three rows, were used to collect data. In the middle rows, 14 plants were randomly selected for measuring. The height of the plants were collected at 30 days. Starting at fruit harvest, fruits collected from these 14 plants were cumulatively added to give the total production data. At the end of harvest these plants were carefully dug up and roots carefully washed to weigh the total roots and also measure the degree of infection in the roots. Soil samples were also collected from the holes where the plants were dug up and analyzed for soil nematode population. Finally, all nut sedge plants that came through the plastic mulch in the entire 150-yard middle rows were counted as a “strike”, a degree of insufficient kill of the rhizomes.
(§3) In this experiment, methyl bromide was applied at full dose of 400 pounds per acre of the gas and the treatments used 200 pounds of methyl bromide per acre alone and with 5 liters of composition A per acre, 100 pounds of methyl bromide alone and with composition A at 5 liters per acre, 50 pounds of methyl bromide with 5 liters of composition A and the last treatment of 5 liters of composition A per acre by itself. Tomatoes were planted 20 days after methyl bromide was injected under the plastic mulch. Composition A was injected through the “T” tape one day after methyl bromide was injected. The design of Experiment II was the same as in Experiment I, and the data collected were as in the Experiment I. The results of this experiment are shown in Table II.

nematodes [2] = assay: Example 1 field trial in Florida: soil nematode population and root infection; settings: methyl bromide 400 pounds per acre
Procedure: as §1, §2

nematodes [3] = assay: Example II field trial: soil nematode population and root infection
Procedure: as §1, §2, §3

nut sedge rhizomes [4] = assay: Example II field trial: nut sedge strikes
Procedure: as §1, §2, §3

tomatoes [5] = assay: Example 1 field trial in Florida, tomatoes under plastic mulch: plant height, production, root weight; settings: methyl bromide 400 pounds per acre, compositions 5 liters per acre
Procedure: as §1, §2

nut sedge rhizomes [6] = assay: Example 1 field trial in Florida: nut sedge strikes through plastic mulch; settings: methyl bromide 400 pounds per acre
Procedure: as §1
The plants growing in the middle rows only of these three rows, were used to collect data. In the middle rows, 14 plants were randomly selected for measuring. The height of the plants were collected at 30 days. Starting at fruit harvest, fruits collected from these 14 plants were cumulatively added to give the total production data. […] Soil samples were also collected from the holes where the plants were dug up and analyzed for soil nematode population. Finally, all nut sedge plants that came through the plastic mulch in the entire 150-yard middle rows were counted as a “strike”, a degree of insufficient kill of the rhizomes.

tomatoes [7] = assay: Example II field trial, methyl bromide dose reduction with or without composition A: tomato growth and production; settings: M.B. 50 lbs. alone

## CBr [Methyl Bromide, Methyl bromide]
Tomatoes [1]; M.B. 100 lbs. per acre alone
  Height at 30 Days: 2.2 ft.
  Production Per Plant: 5.1 lbs.
  Weight of Roots: 90 gr.
Tomatoes [1]; M.B. 200 lbs. per acre alone
  Height at 30 Days: 2.7 ft.
  Production Per Plant: 6.1 lbs.
  Weight of Roots: 120 gr.
Tomatoes [1]; M.B. 400 lbs per acre
  Height at 30 Days: 3 ft.
  Production Per Plant: 8.6 lbs.
  Weight of Roots: 170 gr.
Nematodes [2]; Example 1 discussion
  nematode control in the soil: superior to compositions A, B, C and D
Nematodes [2]; soil at end of harvest, compositions 5 liters per acre
  Soil Nematode: 700/10 gr
Nematodes [2]; tomato roots, end of harvest, compositions 5 liters per acre
  Infection in Roots: zero
Nematodes [3]; M.B. 50 lbs. alone
  Infection in Roots: high
  Soil Nematode: 16,000
Nematodes [3]; M.B. 100 lbs. per acre alone
  Infection in Roots: high
  Soil Nematode: 2200/10 gr.
Nematodes [3]; M.B. 200 lbs. per acre alone
  Infection in Roots: slight
  Soil Nematode: 1056/10 gr.
Nematodes [3]; M.B. 400 lbs per acre
  Infection in Roots: zero
  Soil Nematode: zero
Nut sedge rhizomes [4]; M.B. 50 lbs. alone
  Live nut sedge in 150 yards: 38 strikes
Nut sedge rhizomes [4]; M.B. 100 lbs. per acre alone
  Live nut sedge in 150 yards: 28 strikes
Nut sedge rhizomes [4]; M.B. 200 lbs. per acre alone
  Live nut sedge in 150 yards: 18 strikes
Nut sedge rhizomes [4]; M.B. 400 lbs per acre
  Live nut sedge in 150 yards: 7 strikes
Tomatoes [5]; end of harvest
  Weight of Roots: 165 gr.
Tomatoes [5]
  Height at 30 Days: 2.6 feet
  Production Per Plant: 16 lbs.
Nut sedge rhizomes [6]; Example 1 discussion
  efficacy in controlling the weeds: same efficacy in controlling the weeds as composition A
Nut sedge rhizomes [6]; shoots piercing plastic mulch in 150-yard middle rows, compositions 5 liters per acre
  Live nut sedge in 150 yards: 12/150 strikes″.
Tomatoes [7]
  Height at 30 Days: 2 ft.
  Production Per Plant: 4 lbs.
  Weight of Roots: 60
